Laboratory results published in US11000033B2, “Ketone or oxime compound, and herbicide” (NISSAN CHEMICAL CORPORATION, priority 2014, dated 2021).

Key:
Type in all cases: in vivo
Chenopodium album = assay: Test Example 4: herbicidal effect by soil treatment (symbol O); settings: application herbicide amount 320 g/ha
Procedure, shortened: (§1)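 Seeds were sown in sterilized diluvial soil, covered with about 1.5 cm of soil, and the soil surface was sprayed with a water-diluted emulsion of the compound at a predetermined rate. Plants grew in a greenhouse at 25° C. to 30° C.; effects were scored visually 3 weeks after application.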

Avena fatua = assay: Test Example 4: herbicidal effect by soil treatment (symbol I); settings: application herbicide amount 320 g/ha
Procedure, shortened: as §1

Monochoria vaginalis [1] = assay: Test Example 1: herbicidal activity, application before weed generation in submerged conditions (symbol C); settings: application herbicide amount 320 g/ha
Procedure, shortened: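 Weeds are sown into submerged alluvial soil alongside transplanted 2.5-leaf rice, and the compound, as an emulsion diluted to a set rate, is applied onto the water before emergence. Rating on the 0–5 herbicidal-ratio scale follows 3 weeks of greenhouse growth at 25–30 °C.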

Veronica persica = assay: Test Example 4: herbicidal effect by soil treatment (symbol R); settings: application herbicide amount 320 g/ha
Procedure, shortened: as §1

rapeseed = assay: Test Example 5: effect on crop by foliage application, plastic box (symbol g); settings: 320 g/ha, 3 weeks after application
Procedure, shortened: (§2)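 Diluvial soil, sterilized and boxed (21 × 13 × 7 cm), received spot-sown seed covered by about 1.5 cm soil; plants were then greenhouse-grown at 25–30° C.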

soybean = assay: Test Example 5: effect on crop by foliage application, plastic box (symbol d); settings: 320 g/ha, 3 weeks after application
Procedure, shortened: as §2

Monochoria vaginalis [2] = assay: Test Example 2: herbicidal activity, application during weed generation in submerged conditions (symbol C); settings: Table 23; application herbicide amount 320 g/ha; grade 0-5 by criteria of Test Example 1
Procedure, shortened: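 Flooded-soil post-emergence test: emulsion of compound, water-diluted to target rate, applied to paddy water surface at 1–2 leaf stage of mixed-sown weeds (alluvial soil, 4 cm water, 25–30° C. greenhouse); visual rating 3 weeks after application.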

beet = assay: Test Example 4: effect on crop by soil treatment (symbol f); settings: application herbicide amount 320 g/ha
Procedure, shortened: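 Seeds were sown in spots on sterilized diluvial soil in a plastic box and covered with about 1.5 cm of soil. Plants were then grown in a greenhouse at 25° C. to 30° C.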

[3] = test system: Echinochloa crus-galli var. crus-galli; assay: Test Example 5: herbicidal effect by foliage application, plastic box (symbol H); settings: 320 g/ha, 3 weeks after application
Procedure, shortened: (§3)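 Seeds were sown in sterilized diluvial soil, covered with about 1.5 cm of soil and grown 14 days in a greenhouse at 25° C. to 30° C. An emulsifiable formulation diluted in water to a set rate was sprayed over foliage, and injury was scored 3 weeks later.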

Abutilon theophrasti = assay: Test Example 5: herbicidal effect by foliage application, plastic box (symbol M); settings: 320 g/ha, 3 weeks after application
Procedure, shortened: as §3

Setaria viridis = assay: Test Example 4: herbicidal effect by soil treatment (symbol G); settings: application herbicide amount 320 g/ha
Procedure, shortened: as §1

corn = assay: Test Example 5: effect on crop by foliage application, plastic box (symbol c); settings: 320 g/ha, 3 weeks after application
Procedure, shortened: as §2

[4] = test system: directly sowed rice plant; assay: Test Example 3: effect on crop by foliage application, Wagner pot (symbol b); settings: application herbicide amount 320 g/ha
Procedure, shortened: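 Alluvial soil in a 1/10000-are Wagner pot was flooded to a water depth of 0.1–0.5 cm. Echinochloa crus-galli var. crus-galli, Leptochloa chinensis, Cyperus difformis and rice were sown into it and grown in a greenhouse at 25–30 °C.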

Apera spica-venti = assay: Test Example 5: herbicidal effect by foliage application, plastic box (symbol L); settings: 320 g/ha, 3 weeks after application
Procedure, shortened: as §3

SMILES	O: Chenopodium album, herbicidal effect grade (Chenopodium album)	I: Avena fatua, herbicidal effect grade (Avena fatua)	Herbicidal effect grade, C: Monochoria vaginalis (Monochoria vaginalis [1])	R: Veronica persica, herbicidal effect grade (Veronica persica)	g: rapeseed, effect on crop grade (rapeseed)	d: soybean, effect on crop grade (soybean)	Herbicidal effect grade, C: Monochoria vaginalis (Monochoria vaginalis [2])	f: beet, effect on crop grade (beet)	H: Echinochloa crus-galli var. crus-galli, herbicidal effect grade [3]	M: Abutilon theophrasti, herbicidal effect grade (Abutilon theophrasti)	G: Setaria viridis, herbicidal effect grade (Setaria viridis)	c: corn, effect on crop grade (corn)	effect on crop b (directly sowed rice plant), grade 0-5 [4]	L: Apera spica-venti, herbicidal effect grade (Apera spica-venti)
CON=C(C)CC1CC(O)=C(c2c(C)cc(-c3ccc(C(F)(F)F)cc3)cc2C)C1=O (mixture of isomers) [6-016]	0 (Herbicidal ratio of 5% or lower (almost no effect))	0 (Herbicidal ratio of 5% or lower (almost no effect))	0 (Herbicidal ratio of 5% or lower (almost no effect))	0 (Herbicidal ratio of 5% or lower (almost no effect))	1 (Herbicidal ratio of 5% or higher and lower than 20%)	0 (Herbicidal ratio of 5% or lower (almost no effect))	0 (Herbicidal ratio of 5% or lower (almost no effect))	0 (Herbicidal ratio of 5% or lower (almost no effect))	5 (Herbicidal ratio of 90% or more (almost completely withered))	0 (Herbicidal ratio of 5% or lower (almost no effect))	5 (Herbicidal ratio of 90% or more (almost completely withered))	5 (Herbicidal ratio of 90% or more (almost completely withered))	5 (Herbicidal ratio of 90% or more (almost completely withered))	5 (Herbicidal ratio of 90% or more (almost completely withered))
CON=C(C)CC1CC(O)=C(c2c(C)cc(-c3ccc(OC)cc3)cc2C)C1=O (mixture of isomers) [6-017]	0 (Herbicidal ratio of 5% or lower (almost no effect))	0 (Herbicidal ratio of 5% or lower (almost no effect))	0 (Herbicidal ratio of 5% or lower (almost no effect))	0 (Herbicidal ratio of 5% or lower (almost no effect))	3 (Herbicidal ratio of 40% or higher and lower than 70%)	0 (Herbicidal ratio of 5% or lower (almost no effect))	0 (Herbicidal ratio of 5% or lower (almost no effect))	0 (Herbicidal ratio of 5% or lower (almost no effect))	5 (Herbicidal ratio of 90% or more (almost completely withered))	0 (Herbicidal ratio of 5% or lower (almost no effect))	5 (Herbicidal ratio of 90% or more (almost completely withered))	5 (Herbicidal ratio of 90% or more (almost completely withered))	5 (Herbicidal ratio of 90% or more (almost completely withered))	5 (Herbicidal ratio of 90% or more (almost completely withered))
